Structures can show the parent of a compound that is named as a salt. One block for each compound: values may come before it.
What was measured:
[1] = Blood drug concentration analysis (LC-MS/MS) in In Vivo Depletion Assay; details: human CCR2 (hCCR2) knock-in, 057 background, mouse, whole blood, hCCR2 knock-in mice, IV 0.1 mpk compound + 10 mpk anti-cotinine antibody, 48 hours post-dose, read-out: Exposure of Compound of Formula (I) 48 hours post-dose
[2] = molecular target: human alpha1 nicotinic acetylcholine (nACh) receptor (Homo sapiens, UniProt P02708+Q07001); test: Nicotinic Acetylcholine Receptor Antagonism Assay (IONFlux automated patch clamp); assay type: cell-based; details: for IC50: antagonism of nAChR stimulated with acetylcholine, average if several runs; for Emax at 100 µM: maximum percentage antagonism at Maximum Concentration of Compound Tested 100 μM, read-out: Maximum Response (%)
human alpha1 nicotinic acetylcholine (nACh) receptor, sequence (P02708 21-457): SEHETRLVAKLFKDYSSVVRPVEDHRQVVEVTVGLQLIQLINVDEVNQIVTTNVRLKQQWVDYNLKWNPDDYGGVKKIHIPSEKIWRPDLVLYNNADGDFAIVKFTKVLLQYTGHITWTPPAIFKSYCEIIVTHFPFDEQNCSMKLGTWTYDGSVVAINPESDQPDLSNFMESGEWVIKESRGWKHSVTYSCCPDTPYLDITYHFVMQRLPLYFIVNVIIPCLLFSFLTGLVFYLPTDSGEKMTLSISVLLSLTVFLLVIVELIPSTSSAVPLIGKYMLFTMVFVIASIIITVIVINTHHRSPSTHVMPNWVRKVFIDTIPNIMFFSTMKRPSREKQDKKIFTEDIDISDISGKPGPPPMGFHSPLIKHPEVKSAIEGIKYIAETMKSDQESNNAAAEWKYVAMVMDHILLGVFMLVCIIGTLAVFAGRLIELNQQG
human alpha1 nicotinic acetylcholine (nACh) receptor, sequence (P11230 24-501 partner): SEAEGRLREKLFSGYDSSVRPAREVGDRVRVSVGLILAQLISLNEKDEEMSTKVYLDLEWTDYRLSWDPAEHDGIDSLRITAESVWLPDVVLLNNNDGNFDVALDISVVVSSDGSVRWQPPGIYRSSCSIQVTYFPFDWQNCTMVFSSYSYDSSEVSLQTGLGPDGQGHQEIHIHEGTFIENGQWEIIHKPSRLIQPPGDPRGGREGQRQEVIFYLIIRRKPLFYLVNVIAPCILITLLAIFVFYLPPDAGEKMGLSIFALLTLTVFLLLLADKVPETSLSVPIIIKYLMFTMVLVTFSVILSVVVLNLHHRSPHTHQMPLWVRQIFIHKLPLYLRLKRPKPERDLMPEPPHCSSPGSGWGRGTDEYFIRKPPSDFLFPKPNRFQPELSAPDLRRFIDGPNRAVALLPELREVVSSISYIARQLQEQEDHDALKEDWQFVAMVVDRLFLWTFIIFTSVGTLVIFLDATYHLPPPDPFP
human alpha1 nicotinic acetylcholine (nACh) receptor, sequence (Q07001 22-517): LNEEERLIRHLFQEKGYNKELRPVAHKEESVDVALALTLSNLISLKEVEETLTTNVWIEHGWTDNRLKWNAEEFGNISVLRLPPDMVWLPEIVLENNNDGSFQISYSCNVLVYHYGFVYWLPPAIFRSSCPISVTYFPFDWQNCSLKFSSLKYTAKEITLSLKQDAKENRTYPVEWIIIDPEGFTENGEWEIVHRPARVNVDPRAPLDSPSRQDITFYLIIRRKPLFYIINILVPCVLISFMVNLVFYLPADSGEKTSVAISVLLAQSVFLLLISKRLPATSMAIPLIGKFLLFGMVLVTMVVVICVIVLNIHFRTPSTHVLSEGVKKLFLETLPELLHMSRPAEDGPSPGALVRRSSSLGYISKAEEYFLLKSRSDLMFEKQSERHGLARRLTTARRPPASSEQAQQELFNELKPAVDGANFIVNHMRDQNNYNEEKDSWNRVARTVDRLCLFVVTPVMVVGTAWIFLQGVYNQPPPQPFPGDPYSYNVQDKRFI
Method: Cells expressing human alpha1 nicotinic acetylcholine (nACh) receptor (nAChR) were washed and dissociated using Trypsin containing buffer. Cells were then washed and seeded at a density of 3-5 million cells/mL and allowed to grow for 3 days. Then, 60-80 μL of cells were added to plates and incubated with dose response of an ARM compound of Formula (I) with a top concentration of either 10 μM or 100 μM. The receptor was then stimulated via addition of acetylcholine (ACh) and activation of the receptor was monitored via the IONFlux automated patch clamp system. IonFlux Data Analyzer software was utilized to perform leak subtraction and measure (min) peak current amplitude.
Data processing: (1) Current values recorded for vehicle only applications in individual traps/patterns were subtracted from corresponding current amplitude values for control, test article and control+test article. (2) Control response was calculated as % of the average response of the 3rd out of total 3 ACh (10 mM) applications alone. In rare situations, if the 3rd ACh response was obscured due to technical artifacts, the 2nd and/or 1st ACh (10 mM) application was considered as control. The peak current amplitude generated in the presence of each test article concentration was then used to calculate the % inhibition as compared to control response (10 mM ACh alone). These estimates were further corrected for vehicle response and run down corrected by normalizing with time matched control responses (10 mM ACh alone). The corrected percentages were then fit with a non-linear function in GraphPad Prism 6 (or later versions) to determine the IC50.
Exclusion criteria: (i) any n's with poor recording quality, (ii) control current amplitude <500 pA or (iii) significant outliers, as determined by the Grubbs' test.
ARMs compounds of Formula (I) of the invention were tested for antagonism of the nAChR in the above assay in […] experimental runs and the results are shown in Table 6 below. Antagonistic activity of the compounds of Formula (I) of the invention is reported as an IC50 value (half maximal inhibitory concentration) and the maximum percentage antagonism observed at the highest concentration of compound of Formula (I) tested, as indicated in Table 6. For compounds tested in more than one experimental run, the IC50 value is reported as an average.

Compound: CO[C@@H]1COCC[C@@H]1N[C@@H]1CC[C@@](C(=O)N2Cc3cc(C(F)(F)F)cnc3[C@H](NC(=O)[C@H]3CC[C@H](NC(=O)CCCO[C@H]4CC[C@H](OCCNC(=O)[C@H]5CC(=O)N(C)[C@@H]5c5cccnc5)CC4)CC3)C2)(C(C)C)C1 [Example 14, (2S,3S)-N-(2-(((1R,4S)-4-(4-(((1R,4R)-4-(((R)-6-((1S,3R)-1-isopropyl-3-(((3S,4S)-3-methoxytetrahydro-2H-pyran-4-yl)amino)cyclopentane-1-carbonyl)-3-(trifluoromethyl)-5,6,7,8-tetrahydro-1,6-naphthyridin-8-yl)carbamoyl)cyclohexyl)amino)-4-oxobutoxy)cyclohexyl)oxy)ethyl)-1-methyl-5-oxo-2-(pyridin-3-yl)pyrrolidine-3-carboxamide, 3Formic acid salt]
concentration at 48 h [1]: 41.4 ng/mL
IC50 [2]: > 100 µM
Emax at 100 µM [2]: 38%

Compound: CO[C@@H]1COCC[C@@H]1N[C@@H]1CC[C@](CCCNC(=O)[C@H]2CC[C@@H](NC(=O)CCOCCOCCOCCNC(=O)[C@H]3CC(=O)N(C)[C@@H]3c3cccnc3)CC2)(C(=O)N2CCc3ncc(C(F)(F)F)cc3C2)C1 [Example 17, (2S,3S)—N-(2-(2-(2-(3-(((1R,4s)-4-((3-((1S,3R)-3-(((3S,4S)-3-Methoxytetrahydro-2H-pyran-4-yl)amino)-1-(3-(trifluoromethyl)-5,6,7,8-tetrahydro-1,6-naphthyridine-6-carbonyl)cyclopentyl)propyl)carbamoyl)cyclohexyl)amino)-3-oxopropoxy)ethoxy)ethoxy)ethyl)-1-methyl-5-oxo-2-(pyridin-3-yl)pyrrolidine-3-carboxamide, Formic acid salt]
concentration at 48 h [1]: 28.3 ng/mL
IC50 [2]: ≥ 100 µM
Emax at 100 µM [2]: 21%

Compound: CO[C@H]1COCC[C@H]1N[C@H]1CC[C@@](CCCNC(=O)[C@H]2CC[C@@H](NC(=O)CCOCCOCCNC(=O)CCNC(=O)[C@H]3CC(=O)N(C)[C@@H]3c3cccnc3)CC2)(C(=O)N2CCc3ncc(C(F)(F)F)cc3C2)C1 [Example 19, (2S,3S)—N-(3-((2-(2-(3-(((1s,4s)-4-((3-((1R,3S)-3-(((3R,4R)-3-Methoxytetrahydro-2H-pyran-4-yl)amino)-1-(3-(trifluoromethyl)-5,6,7,8-tetrahydro-1,6-naphthyridine-6-carbonyl)cyclopentyl)propyl)carbamoyl)cyclohexyl)amino)-3-oxopropoxy)ethoxy)ethyl)amino)-3-oxopropyl)-1-methyl-5-oxo-2-(pyridin-3-yl)pyrrolidine-3-carboxamide]
concentration at 48 h [1]: 54.2 ng/mL
IC50 [2]: > 100 µM
Emax at 100 µM [2]: 8%

concentration at 48 h [1]: 74.6 ng/mL
Emax at 100 µM [2]: 74%
Compound: CO[C@@H]1COCC[C@@H]1N[C@@H]1CC[C@](CCCNC(=O)CCOCCOCCO[C@H]2CC[C@H](OCCNC(=O)[C@H]3CC(=O)N(C)[C@@H]3c3cccnc3)CC2)(C(=O)N2CCc3ncc(C(F)(F)F)cc3C2)C1 [Example 20, ((2S,3S)—N-(2-(((1r,4S)-4-(2-(2-(3-((3-((1S,3R)-3-(((3S,4S)-3-Methoxytetrahydro-2H-pyran-4-yl)amino)-1-(3-(trifluoromethyl)-5,6,7,8-tetrahydro-1,6-naphthyridine-6-carbonyl)cyclopentyl)propyl)amino)-3-oxopropoxy)ethoxy)ethoxy)cyclohexyl)oxy)ethyl)-1-methyl-5-oxo-2-(pyridin-3-yl)pyrrolidine-3-carboxamide, Formic acid salt]
